Experimental findings from patent publication US11173162B2, “Bicyclic heterocycles as FGFR4 inhibitors” (Incyte Corporation, priority 2015, dated 2021) are described below.

Some results are limits rather than exact numbers.

This assay relates to FGFR3 enzyme. Nature of the assay: FGFR Enzymatic Assay (FRET peptide phosphorylation), FGFR3. Format: biochemical. As to conditions: IC50 ratio showing FGFR3 selectivity; Table 2A, pre-incubated for 4 hours. The procedure: The inhibitor potency of the exemplified compounds was measured in an enzyme assay that measures peptide phosphorylation using FRET measurements to detect product formation. Inhibitors were serially diluted in DMSO and a volume of 0.5 μL was transferred to the wells of a 384-well plate.
GraphPad prism3 was used to analyze the data.
For the compound `COc1cc(OC)c(F)c(N2Cc3cnc(-c4ccccc4)cc3C3(CC3)C2=O)c1F` [Example 17, 2′-(2,6-difluoro-3,5-dimethoxyphenyl)-6′-phenyl-1′H-spiro[cyclopropane-1,4′-[2,7]naphthyridin]-3′(2′H)-one], the FGFR1/FGFR3 is on record as over 10.
As for `CNC(=O)c1ccc(-c2cc3c(cn2)CN(c2c(F)c(OC)cc(OC)c2F)C(=O)C32CC2)cn1` [Example 18, 5-(2′-(2,6-difluoro-3,5-dimethoxyphenyl)-3′-oxo-2′,3′-dihydro-1′H-spiro[cyclopropane-1,4′-[2,7]naphthyridine]-6′-yl)-N-methylpicolinamide], the FGFR1/FGFR3 is reported as over 5.
Still for that read-out and setting: the result for `CNC(=O)c1ccc(-c2cc3c(cn2)CN(c2c(F)c(OC)cc(OC)c2F)C(=O)C32CC2)cc1` [Example 19, 4-(2′-(2,6-difluoro-3,5-dimethoxyphenyl)-3′-oxo-2′,3′-dihydro-1′H-spiro[cyclopropane-1,4′-[2,7]naphthyridine]-6′-yl)-N-methylbenzamide] reads over 5; that for `COc1cc(OC)c(F)c(N2Cc3cnc(-c4ccc(C#N)nc4)cc3C3(CC3)C2=O)c1F` [Example 20, 5-(2′-(2,6-difluoro-3,5-dimethoxyphenyl)-3′-oxo-2′,3′-dihydro-1′H-spiro[cyclopropane-1,4′-[2,7]naphthyridine]-6′-yl)picolinonitrile], over 5.
The same measure, in the same setting: the figure for `COc1cc(OC)c(F)c(N2Cc3cnc(-c4cn(C)nc4C)cc3C3(CC3)C2=O)c1F` [Example 21, 2′-(2,6-difluoro-3,5-dimethoxyphenyl)-6′-(1,3-dimethyl-1H-pyrazol-4-yl)-1′,2′-dihydro-3′H-spiro[cyclopropane-1,4′-[2,7]naphthyridin]-3′-one] is over 5; for `CCN1C(=O)N(c2c(F)c(OC)cc(OC)c2F)Cc2cnc(-c3ccccc3)cc21` [Example 22, 3-(2,6-difluoro-3,5-dimethoxyphenyl)-1-ethyl-7-phenyl-3,4-dihydropyrido[4,3-d]pyrimidin-2(1H)-one] it is over 5.
As for `CCN1C(=O)N(c2c(F)c(OC)cc(OC)c2F)Cc2cnc(-c3cccnc3)cc21` [Example 23, 3-(2,6-difluoro-3,5-dimethoxyphenyl)-1-ethyl-7-(pyridin-3-yl)-3,4-dihydropyrido[4,3-d]pyrimidin-2(1H)-one], the FGFR1/FGFR3 was over 5.
For the compound `CCN1C(=O)N(c2c(F)c(OC)cc(OC)c2F)Cc2cnc(-c3ccc(CN4CC[C@H](C#N)C4)cc3)cc21` [Example 25, (S)-1-(4-(3-(2,6-difluoro-3,5-dimethoxyphenyl)-1-ethyl-2-oxo-1,2,3,4-tetrahydropyrido[4,3-d]pyrimidin-7-yl)benzyl)pyrrolidine-3-carbonitrile], the FGFR1/FGFR3 is over 5 and the FGFR4/FGFR3 was over 5.
As to `CCN1C(=O)N(c2c(F)c(OC)cc(OC)c2F)Cc2cnc(-c3ccc(C(C)(C)C#N)nc3)cc21` [Example 26, 2-(5-(3-(2,6-difluoro-3,5-dimethoxyphenyl)-1-ethyl-2-oxo-1,2,3,4-tetrahydropyrido[4,3-d]pyrimidin-7-yl)pyridin-2-yl)-2-methylpropanenitrile], the FGFR1/FGFR3 is listed as over 5 and the FGFR4/FGFR3 is recorded as over 5.
As to `CCN1C(=O)N(c2c(F)c(OC)cc(OC)c2F)Cc2cnc(-c3ccc(C4(C#N)CCC4)nc3)cc21` [Example 27, 1-(5-(3-(2,6-difluoro-3,5-dimethoxyphenyl)-1-ethyl-2-oxo-1,2,3,4-tetrahydropyrido[4,3-d]pyrimidin-7-yl)pyridin-2-yl)cyclobutanecarbonitrile], the FGFR1/FGFR3 is over 10 and the FGFR4/FGFR3 was over 10.
Take `COc1cc(OC)c(F)c(N2Cc3cnc(-c4cn(C)nc4C)cc3N(CC3CC3)C2=O)c1F` [Example 29, 1-(cyclopropylmethyl)-3-(2,6-difluoro-3,5-dimethoxyphenyl)-7-(1,3-dimethyl-1H-pyrazol-4-yl)-3,4-dihydropyrido[4,3-d]pyrimidin-2(1H)-one]: the FGFR1/FGFR3 is over 1 and the FGFR4/FGFR3 is listed as over 5.
With `CCCN1C(=O)N(c2c(F)c(OC)cc(OC)c2F)Cc2cnc(-c3cn(C)nc3C)cc21` [Example 30, 3-(2,6-difluoro-3,5-dimethoxyphenyl)-7-(1,3-dimethyl-1H-pyrazol-4-yl)-1-propyl-3,4-dihydropyrido[4,3-d]pyrimidin-2(1H)-one], the FGFR1/FGFR3 was over 1 and the FGFR4/FGFR3 is reported as over 5.
Regarding `COc1cc(OC)c(F)c(N2Cc3cnc(-c4cn(C)nc4C)cc3N(Cc3cc(C)on3)C2=O)c1F` [Example 31, 3-(2,6-difluoro-3,5-dimethoxyphenyl)-7-(1,3-dimethyl-1H-pyrazol-4-yl)-1-((5-methylisoxazol-3-yl)methyl)-3,4-dihydropyrido[4,3-d]pyrimidin-2(1H)-one], the FGFR1/FGFR3 is over 5 and the FGFR4/FGFR3 is over 10.
In the case of `COc1cc(OC)c(F)c(N2Cc3cnc(-c4cn(C)nc4C)cc3N(C3CCCC3)C2=O)c1F` [Example 32, 1-cyclopentyl-3-(2,6-difluoro-3,5-dimethoxyphenyl)-7-(1,3-dimethyl-1H-pyrazol-4-yl)-3,4-dihydropyrido[4,3-d]pyrimidin-2(1H)-one], the FGFR1/FGFR3 is over 1 and the FGFR4/FGFR3 was over 5.
For the compound `COc1cc(OC)c(F)c(N2Cc3cnc(-c4cn(C)nc4C)cc3N(C3CCOC3)C2=O)c1F` (stereo not shown) [Example 33, 3-(2,6-difluoro-3,5-dimethoxyphenyl)-7-(1,3-dimethyl-1H-pyrazol-4-yl)-1-(tetrahydrofuran-3-yl)-3,4-dihydropyrido[4,3-d]pyrimidin-2(1H)-one], the FGFR1/FGFR3 is recorded as over 5 and the FGFR4/FGFR3 is reported as over 5.
In the case of `COc1cc(OC)c(F)c(N2Cc3cnc(-c4cn(C)nc4C)cc3N(Cc3ccc(F)cc3)C2=O)c1F` [Example 34, 3-(2,6-difluoro-3,5-dimethoxyphenyl)-7-(1,3-dimethyl-1H-pyrazol-4-yl)-1-(4-fluorobenzyl)-3,4-dihydropyrido[4,3-d]pyrimidin-2(1H)-one], the FGFR1/FGFR3 is on record as over 5 and the FGFR4/FGFR3 is listed as over 10.
For `COc1cc(OC)c(F)c(N2Cc3cnc(-c4cn(C)nc4C)cc3N(Cc3cc(C)no3)C2=O)c1F` [Example 35, 3-(2,6-difluoro-3,5-dimethoxyphenyl)-7-(1,3-dimethyl-1H-pyrazol-4-yl)-1-((3-methylisoxazol-5-yl)methyl)-3,4-dihydropyrido[4,3-d]pyrimidin-2(1H)-one] the same measures were over 5 and over 10.
Turning to `COc1cc(OC)c(F)c(N2Cc3cnc(-c4cn(C)nc4C)cc3N(CC3CCOCC3)C2=O)c1F` [Example 37, 3-(2,6-difluoro-3,5-dimethoxyphenyl)-7-(1,3-dimethyl-1H-pyrazol-4-yl)-1-((tetrahydro-2H-pyran-4-yl)methyl)-3,4-dihydropyrido[4,3-d]pyrimidin-2(1H)-one], the FGFR1/FGFR3 was over 1 and the FGFR4/FGFR3 was over 10.
For `COc1cc(OC)c(F)c(N2Cc3cnc(-c4cn(C)nc4C)cc3N(Cc3ccc4c(c3)OCCO4)C2=O)c1F` [Example 38, 3-(2,6-difluoro-3,5-dimethoxyphenyl)-1-((2,3-dihydrobenzo[b][1,4]dioxin-6-yl)methyl)-7-(1,3-dimethyl-1H-pyrazol-4-yl)-3,4-dihydropyrido[4,3-d]pyrimidin-2(1H)-one], the FGFR1/FGFR3 was over 5 and the FGFR4/FGFR3 was over 5.
In the case of `CCn1cc(CN2C(=O)N(c3c(F)c(OC)cc(OC)c3F)Cc3cnc(-c4cn(C)nc4C)cc32)cn1` [Example 39, 3-(2,6-difluoro-3,5-dimethoxyphenyl)-7-(1,3-dimethyl-1H-pyrazol-4-yl)-1-((1-ethyl-1H-pyrazol-4-yl)methyl)-3,4-dihydropyrido[4,3-d]pyrimidin-2(1H)-one], the FGFR1/FGFR3 was over 10 and the FGFR4/FGFR3 is over 10.
For `COc1cc(OC)c(F)c(N2Cc3cnc(-c4cn(C)nc4C)cc3N(c3ccc(F)cc3)C2=O)c1F` [Example 40, 3-(2,6-difluoro-3,5-dimethoxyphenyl)-7-(1,3-dimethyl-1H-pyrazol-4-yl)-1-(4-fluorophenyl)-3,4-dihydropyrido[4,3-d]pyrimidin-2(1H)-one], the FGFR1/FGFR3 is recorded as over 10 and the FGFR4/FGFR3 is over 10.
As to `COc1cc(OC)c(F)c(N2Cc3cnc(-c4cn(C)nc4C)cc3N(c3ccc4ncsc4c3)C2=O)c1F` [Example 41, 1-(1,3-benzothiazol-6-yl)-3-(2,6-difluoro-3,5-dimethoxyphenyl)-7-(1,3-dimethyl-1H-pyrazol-4-yl)-3,4-dihydropyrido[4,3-d]pyrimidin-2(1H)-one], the FGFR1/FGFR3 is over 1 and the FGFR4/FGFR3 is over 5.
The like results for `COc1cc(OC)c(F)c(N2Cc3cnc(-c4cn(C)nc4C)cc3N(C3CCN(C(C)=O)CC3)C2=O)c1F` [Example 43, 1-(1-acetylpiperidin-4-yl)-3-(2,6-difluoro-3,5-dimethoxyphenyl)-7-(1,3-dimethyl-1H-pyrazol-4-yl)-3,4-dihydropyrido[4,3-d]pyrimidin-2(1H)-one] were, in that order, over 10 and over 5.
For the compound `COc1cc(OC)c(F)c(N2Cc3cnc(-c4cn(C)nc4C)cc3N(c3ccc(C#N)cc3)C2=O)c1F` [Example 44, 4-(3-(2,6-difluoro-3,5-dimethoxyphenyl)-7-(1,3-dimethyl-1H-pyrazol-4-yl)-2-oxo-3,4-dihydropyrido[4,3-d]pyrimidin-1 (2H)-yl)benzonitrile], the FGFR1/FGFR3 was over 10 and the FGFR4/FGFR3 is given as over 10.
Turning to `COc1cc(OC)c(F)c(N2Cc3cnc(-c4cn(C)nc4C)cc3N(c3ccncn3)C2=O)c1F` [Example 45, 3-(2,6-difluoro-3,5-dimethoxyphenyl)-7-(1,3-dimethyl-1H-pyrazol-4-yl)-1-pyrimidin-4-yl-3,4-dihydropyrido[4,3-d]pyrimidin-2(1H)-one], the FGFR1/FGFR3 is over 10 and the FGFR4/FGFR3 was over 10.
